“And” between values parts separate entries of the source, which are not always exact repeats. Equal entries are not always repeated. “Also recorded” adds a separate entry of the source. Structures can show the parent of a compound that is named as a salt. Where two headings read alike, the source gives them in different places.
What was measured:
PCP RECEPTOR = test: PCP receptor binding assay ([3H]-TCP displacement, brain membranes); design: species or system guinea-pig (male Hartley); conditions: for potency at PCP receptors (in words): hydrochloride
Description: (§1) This example illustrates testing of compounds in receptor binding assays.
(§2) Frozen brains from male Hartley guinea-pigs were obtained from Pel-Freeze (Rogers, Arkansas).
(§3) The brains plus cerebella were homogenized in 10 volumes (v/w) of 0.1M, pH 7.4, ice-cold Tris-HCl buffer with a Brinkmann polytron at setting 4 for 20 seconds. The homogenates were centrifuged at 20,000×g for 20 minutes at 4° C. The pellets were suspended in 10 volumes of ice-cold water and, after sitting on ice for 10 minutes, were centrifuged 30 minutes at 20,000×g at 4° C. The resulting pellets were resuspended in the above Tris buffer in ratio 1:100 (w/v) for σ receptor assays or in 5 mM Tris-HCl having pH 7.4, for PCP receptor assays. The final suspension was homogenized with a dounce glass-glass tissue grinder Wheaton "200", at small clearance (B), with three strokes before use. Two milliter aliquots of the brain membrane preparation, containing 1.7 mg of protein, were incubated in quadruplicate for one hour at 23° C. with competing mixture of ligand and radioligand. For σ receptors, [^3 H]-d-SKF-10,047, 2 nM was used. For PCP receptors, [^3 H] TCP [^3 H]-1-[1-(2-thienyl)cyclohexyl]piperidine), 1 nM was used. The nonspecific bindings were defined by 0.1 mM d-SKF-10,047 and 0.1 mM phencyclidine respectively for σ and PCP receptors. After incubation, free ligand was separated from bound ligand by rapid filtration through Whatman GF/C filters. The filters had been soaked before use in isoamyl alcohol-saturated water to prevent nonspecific [^3 H]-d-SKF-10,047 binding to the filter. In the PCP receptor assay, the filter was soaked in 0.5% polyethylenimine to reduce the filter binding of [^3 H]-TCP. After filtration, the trapped tissue was washed three times with 4 ml aliquots of 0.1 M ice-cold Tris buffer at pH 7.4 for σ receptors and 5 mM, ice-cold Tris buffer pH 7.4 for PCP receptors. The filters were transferred to 5 ml of liquid scintillation fluid and the retained radioactivity was measured by liquid scintillation spectrometry.
(§4) Programs in Biomed. 17:107 (1983)].

[1] = humans; cited from earlier work
[2] = literature; cited from earlier work
SIGMA RECEPTOR = biological target: T1, SIGMA RECEPTOR (Cavia porcellus, UniProt Q60492); test: Sigma receptor binding assay ([3H]-d-SKF-10,047 displacement, brain membranes); design: species or system guinea-pig (male Hartley); conditions: for SIGMA RECEPTOR SLOPE: slope of dose response curve; for potency at σ receptors (in words): hydrochloride
T1 construct: Two milliter aliquots of the brain membrane preparation, containing 1.7 mg of protein; tissue Pel-Freeze (Rogers, Arkansas); host or cells: guinea-pig brains plus cerebella, membranes
T1 sequence (Q60492 whole entry): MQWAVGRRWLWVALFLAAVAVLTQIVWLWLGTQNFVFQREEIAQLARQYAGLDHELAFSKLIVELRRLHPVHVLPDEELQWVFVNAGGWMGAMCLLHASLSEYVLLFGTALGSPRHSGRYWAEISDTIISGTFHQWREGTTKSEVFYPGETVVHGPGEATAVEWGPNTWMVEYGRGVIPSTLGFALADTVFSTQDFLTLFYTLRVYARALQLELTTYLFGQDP
Description: as §1, §2, §3

α1 -ADRENOCEPTOR = test: α1-adrenoceptor binding ([3H]-prazosin); design: species or system guinea-pig; conditions: Table 4; IC50 and nM only stated in text; read-out: α1 -ADRENOCEPTOR
Source text: (§5) This example illustrates the testing of compounds of this invention in dopamine D2, 5-HT2, muscarinic acetylcholine, α1 -adrenoceptor and β-adrenoceptor receptor assays. The receptor assay methods are described in Eur. J. Pharmacol., 155:345 (1988) except that in the β-adrenoceptor assay, [^125 I]-pindolol was used instead of [^3 H] dihydroalprenolol.
(§6) In this study, guinea-pig brains were used for binding studies. Homogenization and centrifugation procedures for preparation of brain membranes for each receptor assay were the same as described in Example 4 for the σ and PCP receptors. However, brain regions, tissue contents, and buffers may differ depending on the assay. Conditions of binding assays for various receptors were as follows:
For α1 -adrenoceptor assay, [^3 H]-prazosin (0.4 nM) was incubated in a 1 ml assay (50 mM Tris-HCl, pH 7.4) for 1 hour at 23° C. with membranes from 1 mg of whole brain minus cerebellum.
(§7) Filtration and washing conditions were the same as described above for the σ receptor assay. Nonspecific binding for each receptor was defined by the inclusion of 1 μM haloperidol for dopamine D2, 1 μM haloperidol for 5-HT2, 10 μM scopolamine for muscarinic acetylcholine, 10 μM prazosin for α1 -adrenoceptor, and 0.2 μM 1-propranolol for β-adrenoceptor. Retained radioactivity was measured by liquid scintillation spectrometry except for ^125 I-pindolol which was measured by the LKB gamma counter.
as §4

5-HT2 = 5-HT2 (Cavia porcellus, UniProt A0A286Y537); test: 5-HT2 receptor binding; design: species or system guinea-pig; conditions: for IC50: Table 4, IC50 and nM only stated in text, read-out: 5-HT2
5-HT2, sequence (A0A286Y537 1-470): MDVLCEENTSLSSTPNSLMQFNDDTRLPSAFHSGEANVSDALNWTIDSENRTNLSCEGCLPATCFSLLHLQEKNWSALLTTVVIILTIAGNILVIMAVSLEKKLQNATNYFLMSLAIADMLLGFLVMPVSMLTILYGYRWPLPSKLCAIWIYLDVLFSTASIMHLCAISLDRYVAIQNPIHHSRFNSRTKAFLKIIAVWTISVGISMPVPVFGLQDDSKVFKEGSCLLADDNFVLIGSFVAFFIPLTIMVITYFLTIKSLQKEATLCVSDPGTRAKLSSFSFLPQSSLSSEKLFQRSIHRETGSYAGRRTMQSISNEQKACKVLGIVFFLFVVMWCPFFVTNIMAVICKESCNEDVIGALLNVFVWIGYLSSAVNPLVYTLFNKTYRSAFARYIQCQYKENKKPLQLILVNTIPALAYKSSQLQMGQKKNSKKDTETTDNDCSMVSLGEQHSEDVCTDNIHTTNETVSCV
Source text: as §5, §6, §7, §4

DOPAMINE D2 = biological target: T2, DOPAMINE D2 (Cavia porcellus, UniProt H0VE83); test: Dopamine D2 receptor binding ([3H]-spiroperidol); design: species or system guinea-pig
T2 construct: printed as cerebral cortical tissue, [3H]spiroperidol, haloperidol blank
T2 sequence (H0VE83 entry or part of it): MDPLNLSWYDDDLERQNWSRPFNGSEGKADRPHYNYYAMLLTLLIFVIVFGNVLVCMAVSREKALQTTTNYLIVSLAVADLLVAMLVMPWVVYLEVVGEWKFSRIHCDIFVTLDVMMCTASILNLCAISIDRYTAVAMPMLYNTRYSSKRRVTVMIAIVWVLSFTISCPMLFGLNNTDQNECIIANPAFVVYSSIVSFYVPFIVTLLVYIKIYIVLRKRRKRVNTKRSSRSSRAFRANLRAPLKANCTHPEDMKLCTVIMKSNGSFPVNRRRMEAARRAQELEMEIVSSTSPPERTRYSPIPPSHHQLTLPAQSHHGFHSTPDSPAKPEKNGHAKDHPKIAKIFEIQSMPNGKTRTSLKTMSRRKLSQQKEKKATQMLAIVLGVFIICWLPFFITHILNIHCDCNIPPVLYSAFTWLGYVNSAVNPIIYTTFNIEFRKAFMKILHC
Source text: as §5, §6
For dopamine D2 assay, 3 H-spiroperidol (0.15 nM) was incubated in a 2 ml assay (50 mM Tris-HCl, pH 7.4) for 2 hours at 23° C. with membranes from 12 mg of cerebral cortical tissue.
as §7, §4

β-ADRENOCEPTOR = test: β-adrenoceptor binding ([125I]-pindolol); design: species or system guinea-pig; conditions: Table 4; IC50 and nM only stated in text; read-out: β-ADRENOCEPTOR
Source text: as §5, §6
For β-adrenoceptor, [^125 I]-pindolol (0.05 nM) was incubated in a 1 ml assay (50 mM Tris-HCl, pH 7.4) for 1 hr at 23° C. with membranes from 1 mg of whole brain minus cerebellum.
as §7, §4

MUSCARINIC ACETYLCHOLINE = assay type: binding, guinea-pig
Source text: as §5, §6
For muscarinic acetylcholine assay, […]) [^3 H]-quinuclidinyl benzylate ([^3 H]-QNB) was incubated in a 2 ml assay (50 mM Tris-HCl, pH 7.4) for 2 hours at 23° C. with membranes from 2 mg of whole brain minus cerebellum.
as §7, §4

σ binding sites = conditions: microinjections into red nucleus and substantia nigra; cited from earlier work
σ receptors = conditions: literature; cited from earlier work
dopamine D-2 receptor = conditions: literature; cited from earlier work
[3] = clinical trials; cited from earlier work
[4] = Table 1, mean ± error (n), read-out: PCP RECEPTOR IC50
[5] = Table 4, IC50 and nM only stated in text, read-out: PCP
[6] = Table 4, IC50 and nM only stated in text, read-out: SIGMA
[7] = Table 4, IC50 and nM only stated in text, read-out: MUSCARINIC ACETYLCHOLINE
[8] = read-out: potency (IC50) at muscarinic acetylcholine receptor

SMILES | IC50 (PCP RECEPTOR; [4]) | SIGMA RECEPTOR SLOPE (SIGMA RECEPTOR; Table 1) | IC50 (α1 -ADRENOCEPTOR) | IC50 (PCP RECEPTOR; [5]) | potency at PCP receptors (in words) (PCP RECEPTOR) | potency at 5-HT2 receptors (in words) (5-HT2) | IC50 (5-HT2) | potency at dopamine D-2 receptors (in words) (DOPAMINE D2) | IC50 (β-ADRENOCEPTOR) | IC50 (SIGMA RECEPTOR; [6]) | potency at σ receptors (in words) (SIGMA RECEPTOR) | IC50 (SIGMA RECEPTOR; read-out: IC50 at σ receptors) | potency at muscarinic acetylcholine receptors (in words) (MUSCARINIC ACETYLCHOLINE) | IC50 (MUSCARINIC ACETYLCHOLINE; [7]) | IC50 (MUSCARINIC ACETYLCHOLINE; [8]) | affinity / binding at σ receptors (in words) (σ receptors) | other results
c1ccc(C2(N3CCCCC3)CCCCC2)cc1 [Compound 1, 1-(1-phenylcylohexyl)piperidine, reference compound] | 45 ± 5 nM | 0.95 ± 0.12 | – | – | – | – | – | – | – | – | – | – | – | – | – | – | psychotic reactions [1]: causes psychotic reactions such as hallucinations, thought disorders and paranoid delusions similar to an acute schizophrenic episode; motor and behavioral effects [2]: alter gross motor activity and spatial alternation performance and to induce stereotypic movements
O=C(OCCN1CCCCC1)C1(c2ccccc2)CCCCC1 [Compound 3, 2-(1-Piperidino)ethyl 1-phenylcyclohexane-1-carboxylate hydrochloride] | 34900 nM | 0.45 ± 0.04 | 24100 nM | 34900 nM | reduced the potency in the PCP receptor assay; also recorded: inactive in the PCP assay; also recorded: very weak or inactive in the PCP assay; also recorded: negligible; also recorded: low potency at PCP receptors | moderate potencies at dopamine D-2 and 5-HT2 receptors | 3660 nM | moderate potencies at dopamine D-2 and 5-HT2 receptors | 80400 nM | 26 ± 7 nM | increased the potency of the compound in the σ receptor assay; also recorded: very potent in the σ assay; also recorded: very high | < 100 nM | quite potent at muscarinic acetylcholine receptors | 46 ± 7 nM | 46 nM | – | decreased potency for PCP receptors (PCP RECEPTOR; relative to PCP (1)): about 700 times; IC50 (SIGMA RECEPTOR; Table 1, mean ± error (n), read-out: SIGMA RECEPTOR IC50): 24 nM; increased potency for σ receptors (SIGMA RECEPTOR; relative to PCP (1)): more than 300 times
O=C(OCCN1CCCC1)C1(c2ccccc2)CCCCC1 [Compound 8, 2-(1-Pyrrolidino)ethyl 1-phenylcyclohexane-1-carboxylate hydrochloride] | 64700 nM | 0.50 ± 0.02 | 23200 nM | 64700 nM | inactive in the PCP assay; also recorded: negligible; also recorded: low potency at PCP receptors | moderate potencies at dopamine D-2 and 5-HT2 receptors | 2930 nM | moderate potencies at dopamine D-2 and 5-HT2 receptors | 85000 nM | 5.1 ± 1.7 nM | σ receptor potency increased; also recorded: very high | 5 nM and < 100 nM | quite potent at muscarinic acetylcholine receptors | 123 ± 16 nM | 23 nM | – | IC50 (PCP RECEPTOR; read-out: IC50 / potency for PCP receptors): ~64000 nM
CCN(CC)CCOC(=O)C1(c2ccccc2)CCCCC1.Cl [Compound 15, 2-(Diethylamino)ethyl 1-phenylcyclohexane-1-carboxylate hydrochloride] | 40900 nM | 0.66 ± 0.16 | 30100 nM | 40900 nM | inactive in the PCP assay; also recorded: very weak or inactive in the PCP assay; also recorded: negligible; also recorded: low potency at PCP receptors | moderate potencies at dopamine D-2 and 5-HT2 receptors | 2180 nM | moderate potencies at dopamine D-2 and 5-HT2 receptors | 81900 nM | 30 ± 5 nM | σ receptor potency increased; also recorded: very potent in the σ assay; also recorded: very high | < 100 nM | quite potent at muscarinic acetylcholine receptors | 189 ± 35 nM | 189 nM | – | –
CN(C)CCOC(=O)C1(c2ccccc2)CCCCC1.Cl [Compound 19, 2-(Dimethylamino)ethyl 1-phenylcyclohexane-1-carboxylate hydrochloride] | 21700 nM | 0.54 ± 0.02 | 29000 nM | 21700 nM | inactive in the PCP assay; also recorded: very weak or inactive in the PCP assay; also recorded: negligible; also recorded: low potency at PCP receptors | moderate potencies at dopamine D-2 and 5-HT2 receptors | 1410 nM | moderate potencies at dopamine D-2 and 5-HT2 receptors | 85700 nM | 9.2 ± 0.8 nM | σ receptor potency increased; also recorded: very potent in the σ assay; also recorded: very high | < 100 nM | quite potent at muscarinic acetylcholine receptors | 750 ± 36 nM | 750 nM | – | –
Cc1ccccc1NC(=N)Nc1ccccc1C [DTG, 1,3-di-o-tolylguanidine] | – | – | – | – | – | – | – | – | – | – | – | – | – | – | – | bind to σ receptors | contralateral circling behavior (σ binding sites): produce vigorous contralateral circling behavior
O=C(CCCN1CCC(O)(c2ccc(Cl)cc2)CC1)c1ccc(F)cc1 [haloperidol, 4-[4-(p-chlorophenyl)-4-hydroxypiperidino]-4'-fluorobutyrophenone] | – | – | – | – | – | – | – | – | – | – | – | – | – | – | – | high affinity for the σ site; also recorded: bind to σ receptors | dopamine D-2 receptor antagonism (in words) (dopamine D-2 receptor): potent dopamine D-2 receptor antagonist
CCN1CCC[C@H]1CNC(=O)c1c(OC)ccc(Br)c1OC [remoxipride] | – | – | – | – | – | – | – | – | – | – | – | – | – | – | – | potent and selective σ receptor ligands | clinical antipsychotic effects [3]: display clinical antipsychotic effects
